≈ marks a conversion by molar mass, not a printed value.
What was measured:
Type in all cases: cell-based, human
Details in all cases: 6 days incubation, 50% reduction of absorbance vs untreated controls, mean of 2 observations
[1] = test system: Hs 740.T stomach carcinoma cell line; experiment: MTT cytotoxicity assay, Hs 740.T
Source text: (§1) Here, as described herein below, the inventors used human stomach carcinoma (Hs 740.T, Hs 756 T), breast adenocarcinoma (Hs 578 T, Hs 742.T) and prostate carcinoma (DU 145, and LNCaP-FGC) cell lines to evaluate the cytotoxic activities of extracts and the compounds provided the invention. The 50% effective doses (ED50) obtained by measuring growth inhibition with MTT (3-[4,5-dimethlthiazol-2-yl]-2,5-diphenyltetrazolium bromide]) (Goren et al, 1996; Rubinstein et al, 1990) are shown in Table 3.
(§2) The following materials and reagents were used for cell culture and cytotoxic assays. Human stomach carcinoma (Hs 740.T, Hs 756 T), breast adenocarcinoma (Hs 578 T, Hs 742.T) and prostate carcinoma (DU 145, LNCaP-FGC) cell lines were purchased from the American Type Culture Collection ATCC. Dulbecco's modified Eagle medium (DMEM) (Gibco, Grand Island, N.Y.), Eagle Minimum Essential Medium (EMEM) and Rosewell Park Memorial Institute (RPMI) 1640 medium were from Nissui Pharm. Co., Ltd., Tokyo, Japan. Flat-bottom plates, 96-well were from Iwaki Glass Co., LTD (Funabashi-Chiba-Ken, Japan). The 3-[4,5-dimethlthiazol-2-yl]-2,5-diphenyltetrazolium bromide (MTT) colorimetric assay (Goren et al., 1996; Rubinstein et al., 1990) was from Sigma (St. Louis, Mo., USA), and 10% fetal bovine serum FBS was from Gibco BRL (Rockville, Md., USA). All other chemicals used were of analytical reagent grade.
(§3) Cell lines Hs 740.T, Hs 746 T, Hs 578 T and Hs 742.T were cultured in Dulbecco's Modified Eagle's Medium (DMEM) containing 10% heat-inactivated Fetal Bovine Serum (FBS). The DU 145 cells were cultured in Eagle Minimum Essential Medium (EMEM) containing Earle's salts and supplemented with amino acids and 10% heat-inactivated FBS. The LNCaP-FGC cell lines were maintained in Rosewell Park Memorial Institute (RPMI) 1640 medium containing 10% heat-inactivated FBS. All cell lines were cultivated in an incubator at 37° C. in humidified air containing 5% CO2. For routine cytotoxicity assays, all six cell lines were adapted to one single medium RPMI 1640 medium supplemented with 10% FBS, 2 mM L-glutamine, penicillin (100 units/mL) and streptomycin (100 μg/mL). For the microassay, the growth medium was supplemented with 10 mM HEPES (1-(2-hydroxyethyl) piperazine-4-ethanesulfonic acid) buffer (pH 7.3) and incubated at 37° C. in a CO2 incubator. These methods are similar to those used by Goren et al., (1996) AND Rubinstein et al., (1990).
(§4) Cellular viability in the presence and absence of experimental agents was determined using the standard MTT (3-[4,5-dimethlthiazol-2-yl]-2,5-diphenyltetrazolium bromide) calorimetric assay (Goren et al., 1996; Rubinstein et al., 1990). The assay is based on reduction of MTT by the mitochondrial dehydrogenase of viable cells to give a blue formazan product that can be measured spectrophotometrically (Goren et al., 1996; Rubinstein et al., 1990). In brief, exponentially growing cells were harvested, and 200 μL cells suspension were seeded in 96-well microplates and preincubated for 24 h at 37° C. under 5% CO2 to allow cell attachment. After attachment, 10 μL of an EtOH: H2O (1:1 solution) containing varying concentrations of test samples were added to wells in duplicate, and 10 μL EtOH:H2O (1:1) was added into wells as a control. Sample containing microplates were further incubated for 6 days. Cell survival was evaluated by adding 10 μL of 5 mg mL of MTT in 0.1 mM, pH 7.4 phosphate buffered saline to each well, and reincubating plates in 5% CO2/air for 4 h at 37° C. Plates were then centrifuged at 1,500×g for 5 min to precipitate cells and MTT formazan. An aliquot of 100 μL of the supernatant was removed, and DMSO (100 μL) was added to dissolve the precipitated, reduced MTT. The plate was mixed on a microshaker for 10 min, and the absorbance was determined at 550 nm with a multiwell scanning spectrophotometer (Dynex MR 5000, Chantilly Va.). […]

[2] = test system: Hs 746 T stomach carcinoma cell line; experiment: MTT cytotoxicity assay, Hs 746 T
Source text: as §1, §2, §3, §4

[3] = test system: Hs 578 T breast adenocarcinoma cell line; experiment: MTT cytotoxicity assay, Hs 578 T
Source text: as §1, §2, §3, §4

[4] = test system: HS 742.T breast adenocarcinoma cell line; experiment: MTT cytotoxicity assay, HS 742.T
Source text: as §1, §2, §3, §4

[5] = test system: DU 145 prostate carcinoma cell line; experiment: MTT cytotoxicity assay, DU 145
Source text: as §1, §2, §3, §4

[6] = test system: LNCAp-FGC prostate carcinoma cell line; experiment: MTT cytotoxicity assay, LNCaP-FGC
Source text: as §1, §2, §3, §4

| SMILES | ED50 Stomach Carcinoma Hs 740.T [1] | ED50 Stomach Carcinoma Hs 746 T [2] | ED50 Breast Adenocarcinoma Hs 578 T [3] | ED50 Breast Adenocarcinoma HS 742.T [4] | ED50 Prostate Carcinoma DU 145 [5] | ED50 Prostate Carcinoma LNCAp-FGC [6] |
| --- | --- | --- | --- | --- | --- | --- |
| COc1ccc(-c2coc3cc(OC4OC(COC(C)=O)[C@@H](O)C(O)C4OC(C)=O)ccc3c2=O)cc1 (stereo partly drawn) [Compound 3, formononetin-7-O-(2″,6″-O-diacetyl) glucopyranoside] | 7.61 µg/mL (≈ 14.8 µM) | 8.89 µg/mL (≈ 17.3 µM) | 5.44 µg/mL (≈ 10.6 µM) | 25.53 µg/mL (≈ 49.6 µM) | 4.18 µg/mL (≈ 8.12 µM) | 22.12 µg/mL (≈ 43 µM) |
| O=C1c2ccc(O[C@@H]3O[C@H](CO)[C@@H](O)[C@H](O)[C@H]3O)cc2OCC1c1ccc(O)cc1 (stereo partly drawn) [Compound 1, 7-O-β-D-glucopyranosyl-4′-hydroxy-isoflavanone] | 17.37 µg/mL (≈ 41.5 µM) | 14.92 µg/mL (≈ 35.7 µM) | 28.23 µg/mL (≈ 67.5 µM) | 33.57 µg/mL (≈ 80.2 µM) | 9.16 µg/mL (≈ 21.9 µM) | 32.45 µg/mL (≈ 77.6 µM) |
| C[C@@H]1O[C@@H](O[C@H]2[C@H](O[C@H]3[C@H](O[C@H]4CC[C@@]5(C)[C@@H](CC[C@]6(C)[C@@H]5CC=C5[C@@H]7CC(C)(C)C[C@@H](O[C@@H]8O[C@H](CO)[C@@H](O)[C@H](O)[C@H]8O[C@@H]8O[C@@H](C)[C@H](O)[C@@H](O)[C@H]8O)[C@]7(C)CC[C@]56C)[C@]4(C)CO)O[C@H](C(=O)O)[C@@H](O)[C@@H]3O)O[C@H](CO)[C@H](O)[C@@H]2O)[C@H](O)[C@H](O)[C@H]1O [Compound 14] | 4.10 µg/mL (≈ 3.28 µM) | 3.94 µg/mL (≈ 3.15 µM) | 2.12 µg/mL (≈ 1.69 µM) | 14.63 µg/mL (≈ 11.7 µM) | 3.25 µg/mL (≈ 2.6 µM) | 24.10 µg/mL (≈ 19.3 µM) |
| CC1(C)C[C@@H](O)[C@]2(C)CC[C@]3(C)C(=CC[C@@H]4[C@@]5(C)CC[C@H](O[C@@H]6O[C@H](C(=O)O)[C@@H](O)[C@H](O)[C@H]6O)[C@@](C)(CO)[C@@H]5CC[C@]43C)[C@@H]2C1 [Compound 17, 3-O-[β-D-glucuronopyranosyl]soyasapogenol B, reference compound] | 9.61 µg/mL (≈ 15.1 µM) | 9.59 µg/mL (≈ 15.1 µM) | 8.77 µg/mL (≈ 13.8 µM) | 28.68 µg/mL (≈ 45.2 µM) | 9.13 µg/mL (≈ 14.4 µM) | 37.29 µg/mL (≈ 58.7 µM) |
| C[C@@H]1O[C@@H](O[C@H]2[C@H](O[C@@H]3CC(C)(C)C[C@H]4C5=CC[C@@H]6[C@@]7(C)CC[C@H](O[C@@H]8O[C@H](C(=O)O)[C@@H](O)[C@H](O)[C@H]8O[C@@H]8O[C@H](CO)[C@H](O)[C@H](O)[C@H]8O[C@@H]8O[C@@H](C)[C@H](O)[C@@H](O)[C@H]8O)[C@@](C)(CO)[C@@H]7CC[C@@]6(C)[C@]5(C)CC[C@@]34C)OC[C@H](O)[C@@H]2O)[C@H](O)[C@H](O)[C@H]1O [Compound 13] | 3.53 µg/mL (≈ 2.89 µM) | 2.47 µg/mL (≈ 2.02 µM) | 2.39 µg/mL (≈ 1.96 µM) | 17.51 µg/mL (≈ 14.3 µM) | 3.12 µg/mL (≈ 2.55 µM) | 27.50 µg/mL (≈ 22.5 µM) |
| CC1(C)C[C@H]2C3=CC[C@@H]4[C@@]5(C)CC[C@H](O[C@@H]6O[C@H](C(=O)O)[C@@H](O)[C@H](O)[C@H]6O[C@@H]6O[C@H](CO)[C@H](O)[C@H](O)[C@H]6O)[C@](C)(CO)[C@@H]5CC[C@@]4(C)[C@]3(C)CC[C@@]2(C)[C@H](O[C@@H]2OC[C@H](O)[C@H](O[C@@H]3O[C@H](CO)[C@@H](O)[C@H](O)[C@H]3O)[C@H]2O)[C@@H]1O [Compound 15, 3-O-{[β-D-galactopyranosyl-(1→2)-β-D-glucuronopyranosyl]}-22-O-[β-D-glucopyranosyl(1→3)-α-L-arabinopyranosyl]soyasapogenol A, reference compound] | 3.15 µg/mL (≈ 2.84 µM) | 3.22 µg/mL (≈ 2.91 µM) | 4.84 µg/mL (≈ 4.37 µM) | 30.10 µg/mL (≈ 27.2 µM) | 2.11 µg/mL (≈ 1.91 µM) | 30.70 µg/mL (≈ 27.7 µM) |
| CC1(C)C[C@@H](O)[C@]2(C)CC[C@]3(C)C(=CC[C@@H]4[C@@]5(C)CC[C@H](O[C@@H]6O[C@H](C(=O)O)[C@@H](O)[C@H](O)[C@H]6O[C@@H]6O[C@H](CO)[C@H](O)[C@H](O)[C@H]6O[C@@H]6O[C@H](CO)[C@@H](O)[C@H](O)[C@H]6O)[C@@](C)(CO)[C@@H]5CC[C@]43C)[C@@H]2C1 [Compound 16, 3-O-[β-D-glucopyranosyl-(1→2)-β-D-galactopyranosyl(1→2)-β-D-glucuronopyranosyl] soyasapogenol B, reference compound] | 8.97 µg/mL (≈ 9.35 µM) | 7.36 µg/mL (≈ 7.67 µM) | 9.87 µg/mL (≈ 10.3 µM) | 31.55 µg/mL (≈ 32.9 µM) | 5.75 µg/mL (≈ 5.99 µM) | 40.68 µg/mL (≈ 42.4 µM) |
| O=c1c(-c2ccc(O)cc2)coc2cc(O)cc(O)c12 [Compound 5, genistein, reference compound] | 4.38 µg/mL (≈ 16.2 µM) | 5.82 µg/mL (≈ 21.5 µM) | 3.50 µg/mL (≈ 13 µM) | 14.88 µg/mL (≈ 55.1 µM) | 2.39 µg/mL (≈ 8.84 µM) | 25.45 µg/mL (≈ 94.2 µM) |
| O=C1c2c(O)cc(O[C@@H]3O[C@H](CO)[C@@H](O)[C@H](O)[C@H]3O)cc2OCC1c1ccc(O)cc1 (stereo partly drawn) [Compound 2, 7-O-β-D-glucopyranosyl-5,7,4′-trihydroxyisoflavanone] | 15.12 µg/mL (≈ 34.8 µM) | 12.24 µg/mL (≈ 28.2 µM) | 15.36 µg/mL (≈ 35.4 µM) | 30.80 µg/mL (≈ 70.9 µM) | 10.25 µg/mL (≈ 23.6 µM) | 41.58 µg/mL (≈ 95.7 µM) |

Source: US7112573B2, “Isoflavone and triterpene glycosides from soybeans” (Iowa Research, The University Foundation, priority 2002, dated 2006)
